The text below walks through data of patent US20130022692A1, “Expression Modulator For Clock Gene Period” (SHISEIDO COMPANY, LTD., priority 2010, published 2013).

This experiment relates to Period1 gene. Briefly: Period1 gene expression in cultured human skin fibroblastic cells (RT-PCR). The conditions noted are these: for Induction of expression rhythm and increase of Period1 gene expression: peak at 2 hours after stimulation, result in words. Type of experiment: cell-based. The method, then:
As the cultured human fibroblastic cells, fibroblastic cells from normal human skin were purchased (Cell Application, Inc.) and used in the experiments. They were inoculated in DMEM medium supplemented with 10% FBS, 20 mM HEPES, Glutamax and antibacterial agents and cultured at 37° C. in 5% CO2. On the 6th day of culture, 50 ng/mL of cortisol or 10 μM of forskolin was added to each wells, and the samples were harvested at various times after time 0, which was defined as the time immediately after the addition of cortisol or forskolin. RNA was extracted from the cells with a commercially available RNA extraction kit, and the amounts of expression of the intended genes were measured by RT-PCR technology using commercially available PCR primers (Perfect Real Time Primer, Takara Bio). As for clock genes, amounts of expression of Period1 and Bmal1, which are involved in the core system, were determined. Similarly, the amounts of expression of a housekeeping gene RPLP0 were quantified and used as an internal standard to calculate the relative expression of the intended genes to RPLP0. […] Test substances were evaluated for the expression modulating effect on a Period gene based on the amount of gene expression at 2 hours after stimulation. To confirm the induction of expression rhythm for the Period gene, the amount of expression of the Period1 gene at 16 hours after stimulation was also determined. Fibroblastic cells from normal human skin (Cell Application, Inc.) were inoculated according to a method similar to those used above. Each test substance was added on the 6th day of culture to a final concentration of 100 ppm, and the cells were harvested 2 and 16 hours after stimulation. […] The amounts of expression of the Period1 gene were determined by RT-PCR technology using commercially available PCR primers (Perfect Real Time Primer, Takara Bio). The amounts of gene expression of a housekeeping gene RPLP0 were quantified and used as an internal standard to calculate the relative expression of the target genes with respect to RPLP0.

Turning to `C[C@]12CCC(=O)C=C1CC[C@@H]1[C@@H]2[C@@H](O)C[C@@]2(C)[C@H]1CC[C@]2(O)C(=O)CO` [cortisol, reference compound], the “Induction of expression rhythm and increase of Period1 gene expression” value is “significantly increase amounts of gene expression of Period1”.

Regarding `C=C1CC/C=C(\C)CC[C@@H]2[C@@H]1CC2(C)C` [beta-Caryophyllene], the “Induction of expression rhythm and increase of Period1 gene expression” value was “significantly increase amounts of gene expression of Period1”. Also, the “Relative amount of Period1 gene expression (2 hours)” value (test substance 100 ppm, 2 hours after stimulation, relative to RPLP0, control 0.23, *p < 0.05, **p < 0.01) is on record as 0.44*.
